# Legend:
# [1] = tested on: wild oats; experiment: Preemergent control of plant species; assay type: in vivo; conditions: Avena fatua, pre-emergence, 336 h; 0.25 lb/acre; read-out: percent preemergent control
# Method: (§1) The seeds of various species of plants were planted in beds of good agricultural soil in a greenhouse. A number of compositions of the present invention, generally in the nature of an aqueous emulsion, were applied at rates listed in the table so as to deposit a predetermined amount of active ingredients uniformly throughout the surface of the bed. Another seed bed was treated only with water to serve as a control. After treatment the seed beds were maintained for two weeks under greenhouse conditions conducive for good plant growth and watered as necessary. Control refers to the reduction in growth compared to the observed results of the same untreated species.
# [2] = tested on: barnyardgrass; experiment: Preemergent control of plant species; assay type: in vivo, Echinochloa crusgalli; conditions: Echinochloa crus-galli, pre-emergence, 336 h; 0.25 lb/acre; read-out: percent preemergent control
# Method: as §1
# [3] = tested on: cotton; experiment: Preemergent control of plant species; assay type: in vivo, Gossypium spp.; conditions: Gossypium hirsutum, pre-emergence, 336 h; 0.25 lb/acre; read-out: percent preemergent control
# Method: as §1
# [4] = tested on: annual morning glory; experiment: Preemergent control of plant species; assay type: in vivo, Ipomoea spp.; conditions: Ipomoea, pre-emergence, 336 h; 0.25 lb/acre; read-out: percent preemergent control
# Method: as §1
# [5] = tested on: yellow nutsedge; experiment: Preemergent control of plant species; assay type: in vivo, Cyperus esculentus; conditions: Cyperus, pre-emergence, 336 h; 0.25 lb/acre; read-out: percent preemergent control
# Method: as §1
# [6] = tested on: rape; experiment: Preemergent control of plant species; assay type: in vivo, Brassica napus; conditions: Brassica napus, pre-emergence, 336 h; 0.25 lb/acre; read-out: percent preemergent control
# Method: as §1
# [7] = tested on: sugar beet; experiment: Preemergent control of plant species; assay type: in vivo, Beta saccharifera; conditions: Beta vulgaris, pre-emergence, 336 h; 0.25 lb/acre; read-out: percent preemergent control
# Method: as §1
# [8] = tested on: johnson grass; experiment: Preemergent control of plant species; assay type: in vivo, Sorghum halepense; conditions: Sorghum halepense, pre-emergence, 336 h; 0.25 lb/acre; read-out: percent preemergent control
# Method: as §1
# [9] = tested on: corn; experiment: Preemergent control of plant species; assay type: in vivo, Zea mays; conditions: Zea mays, pre-emergence, 336 h; 0.25 lb/acre; read-out: percent preemergent control
# Method: as §1
# [10] = tested on: nitrification of ammonium nitrogen; experiment: Suppression of nitrification of ammonium nitrogen in soil; conditions: 27° C.
# Method: A sufficient volume of water was added to 20 g of the soil in a wide-mouth, screw-cap, 4-ounce, glass bottle, such that the moisture content of the mixture was made equal to the 1/3 bar tension value for that soil. The mixture was thoroughly mixed before sealing. […] Acetone slows the rate of soil nitrification and its concentration must be carefully controlled. Single samples of each test chemical were incubated for two weeks at 27° C.
# The experiment comprised the following types of samples:
# The soil samples were analyzed as follows: Sufficient ammonium sulfate extracting solution was added to the sample, such that the total volume of added water was 50 ml (included water added during sample preparation). The capped mixture was shaken 10 minutes to solubilize nitrate and the soil particulates were allowed to settle. The nitrate concentration in the water phase was determined with a nitrate-specific ion electrode such as Orion Model 93-07.
# The non-nitrate nitrogen remaining (% NH4 -N remaining) in the soil after two weeks (performance value) was calculated as follows: [formula]
# [11] = tested on: velvetleaf; experiment: Preemergent control of plant species; assay type: in vivo, Abutilon theophrasti; conditions: Abutilon theophrasti, pre-emergence, 336 h; 0.25 lb/acre; read-out: percent preemergent control
# Method: as §1
# [12] = tested on: jimsonweed; experiment: Preemergent control of plant species; assay type: in vivo, Datura stramonium; conditions: Datura stramonium, pre-emergence, 336 h; 0.25 lb/acre; read-out: percent preemergent control
# Method: as §1
# [13] = tested on: wheat; experiment: Preemergent control of plant species; assay type: in vivo, Triticum aestivum; conditions: Triticum aestivum, pre-emergence, 336 h; 0.25 lb/acre; read-out: percent preemergent control
# Method: as §1
# [14] = tested on: soybean; experiment: Preemergent control of plant species; assay type: in vivo, Glycine max.; conditions: Glycine max, pre-emergence, 336 h; 0.25 lb/acre; read-out: percent preemergent control
# Method: as §1
# [15] = tested on: rice; experiment: Preemergent control of plant species; assay type: in vivo, Oryza sativa; conditions: Oryza sativa, pre-emergence, 336 h; 0.25 lb/acre; read-out: percent preemergent control
# Method: as §1
# [16] = tested on: yellow foxtail; experiment: Preemergent control of plant species; assay type: in vivo, Setaria lutescens; conditions: Setaria, pre-emergence, 336 h; 0.25 lb/acre; read-out: percent preemergent control
# Method: as §1
# [17] = tested on: sorghum; experiment: Preemergent control of plant species; assay type: in vivo, Sorghum vulgare; conditions: Sorghum, pre-emergence, 336 h; 0.25 lb/acre; read-out: percent preemergent control
# Method: as §1
SMILES,pest or weed control at 280.212 g/ha [1],pest or weed control at 280.212 g/ha [2],plant injury at 280.212 g/ha [3],pest or weed control at 280.212 g/ha [4],pest or weed control at 280.212 g/ha [5],plant injury at 280.212 g/ha [6],plant injury at 280.212 g/ha [7],pest or weed control at 280.212 g/ha [8],plant injury at 280.212 g/ha [9],% NH4-N Remaining After 2 Weeks Incubation ([10]; 0.06 ppm),% NH4-N Remaining After 2 Weeks Incubation ([10]; 0.25 ppm),% NH4-N Remaining After 2 Weeks Incubation ([10]; 1 ppm),% NH4-N Remaining After 2 Weeks Incubation ([10]; 4 ppm),pest or weed control at 280.212 g/ha [11],pest or weed control at 280.212 g/ha [12],plant injury at 280.212 g/ha [13],plant injury at 280.212 g/ha [14],plant injury at 280.212 g/ha [15],pest or weed control at 280.212 g/ha [16],plant injury at 280.212 g/ha [17]
Cc1cn2nc(S(=O)(=O)Nc3c(Cl)cccc3Cl)nc2nc1C [Compound 205],50%,50%,100%,75%,70%,100%,100%,0%,95%,32%,38%,76%,81%,100%,100%,0%,90%,50%,0%,
CC(=O)N(c1c(Cl)cccc1Cl)S(=O)(=O)c1nc2nc(C)ccn2n1 [Compound 268],30%,,100%,90%,100%,100%,100%,80%,80%,53%,71%,80%,92%,100%,100%,,0%,100%,100%,100%
CCCC(=O)N(c1c(F)cccc1F)S(=O)(=O)c1nc2nc(C)ccn2n1 [Compound 283],,100%,100%,80%,100%,100%,100%,100%,40%,,,,,100%,95%,100%,20%,100%,100%,100%
C=C(C)C(=O)N(c1c(F)cccc1F)S(=O)(=O)c1nc2nc(C)ccn2n1 [Compound 286],,100%,100%,100%,100%,100%,100%,100%,50%,,,,,100%,100%,70%,30%,100%,100%,100%
CCCCCCCCCC(=O)N(c1c(F)cccc1F)S(=O)(=O)c1nc2nc(C)ccn2n1 [Compound 287],,100%,100%,100%,100%,100%,100%,100%,60%,,,,,100%,100%,70%,30%,100%,100%,100%

# Source: patent publication US4740233A, “Substituted 1,2,4-triazolo[1,5-a]-pyrimidine-2-sulfonamides and compositions and methods of controlling undesired vegetation and suppressing the nitrification of ammonium nitrogen in soil” (The Dow Chemical Company, priority 1986, dated 1988)
